Measured values: patent US20130209433A1, “MODULATION OF AMINO ACID METABOLISM IN THE HYPOTHALAMUS” (Albert Einstein College of Medicine of Yeshiva University, priority 2005, published 2013)

Tests used:
[1] = tested on: conscious rats; assay: Intrahypothalamic (mediobasal hypothalamus) infusion with pancreatic clamp; format: in vivo, rat; details: for rate of glucose infusion required to maintain basal glucose levels: IH infusion 0.33 μl/h (L-glutamate 1 mM; KIC 3 mM bilaterally); for glucose production: IH infusion into mediobasal hypothalamus
Method: Thus, we next tested whether the intra-hypothalamic ([…]) administration of glutamate could recapitulate the effects of […] proline on glucose production.
We next aimed to localize the central effects of KIC on liver glucose production. Toward this end, we administered 3 mM KIC (0.33 μl/h) bilaterally within the parenchyma of the medial hypothalamus. The total amount of KIC given during these experiments was 15 fold lower than that used in the ICV experiments. The correct placement of the hypothalamic cannulae was verified via the infusion of radiolabeled KIC as previously reported.

[2] = tested on: Sprague Dawley rats; assay: ICV (third cerebral ventricle) infusion combined with systemic pancreatic-insulin clamp; format: in vivo, rat; details: for rate of glucose infusion (GIR) required to prevent hypoglycemia / decrease in endogenous glucose production / rate of glucose uptake: ICV infusion; for rate of glucose infusion (GIR) required to prevent hypoglycemia / decrease in endogenous glucose production: 3 mM solution at 5 μl/h for 6 hr; for rate of glucose infusion (GIR) required to prevent hypoglycemia: basal insulin clamp; for decrease in endogenous glucose production / rate of glucose uptake: pancreatic-insulin clamp; for rate of glucose uptake: 3 mM solution at 5 μl/h
Source text: To test this hypothesis we asked whether a primary increase in hypothalamic proline is per se sufficient to inhibit glucose production, and whether this effect requires metabolism of lactate to pyruvate. Experiments were designed to examine the effect of central administration of proline on whole body insulin action. In order to selectively increase the central availability of proline, we infused this amino acid via a chronic cannula implanted in the third cerebral ventricle (ICV) of conscious rats.
Proline (PRO, 3 mM solution at 5 μl/h) or vehicle (CON) was infused ICV for 6 hr in chronically catheterized Sprague Dawley rats. Insulin action was assessed by a combination of ICV infusions with systemic pancreatic-insulin clamp studies in order to control for the circulating levels of glucoregulatory hormones.
We next examined whether the effect of central proline on glucose production requires the inter-conversion between lactate and pyruvate catalyzed by LDH. In light of the ‘astrocyte-neuron lactate shuttle hypothesis’ (Pellerin and Magistretti, 2004), we proposed that central administration of proline leads to increased glutamate synthesis results in the increased formation of lactate (increased glycolysis) in astro-glia (Pellerin and Magistretti, 2004). Based on our previous work, the increased availability of lactate would in turn be expected to induce robust changes in liver glucose fluxes. Consistent with this hypothesis, impeding the conversion of glucose to lactate in astrocytes or of lactate to pyruvate in neurons within the hypothalamus should inhibit the potent metabolic effects of central proline on liver glucose fluxes. Oxamate (OXA) is a competitive inhibitor of LDH (Brooks et al., 1999). Thus, to test this hypothesis we next co-infused ICV oxamate (50 mM; 3 μl bolus; 5 μl/h) with proline in order to examine whether lactate metabolism is required for the effects of proline and presumably of other gluconeogenic amino acids on glucose production.
The entry of ketogenic amino acids into the oxidative pathway requires their conversion to the respective keto acid a reaction that is catalyzed by various amino acid aminotransferases. The keto acid product generated by leucine aminotransferase from leucine is α-ketoisocaproic acid (KIC) that can then be converted to acetyl-CoA by the consecutive action of five enzymes. The rate-limiting step in this process is the oxidative decarboxylation of KIC catalyzed by the branched-chain ketoacid dehydrogenase complex or BCKDC. This enzyme is inhibited by phosphorylation by a BCKDC kinase. Importantly, BCKDC can be robustly activated by α-chloroisocaproic acid (α-CIC) via inhibition of the BCKDC kinase (Harris et al., 1982). To test whether the central metabolism of ketogenic amino acids such as leucine could also lead to inhibition of glucose production, we next asked whether a primary increase in hypothalamic KIC is per se sufficient to inhibit glucose production, and whether this effect also requires metabolism of lactate to pyruvate and activation of ATP-dependent potassium channels (KATP). Experiments were designed to examine the effect of central administration of KIC on whole body insulin action.

SMILES | rate of glucose infusion required to maintain basal glucose levels ([1]; pancreatic clamp) | glucose production [1] | rate of glucose infusion (GIR) required to prevent hypoglycemia [2] [mg/kg/min] | decrease in endogenous glucose production [2] [%] | rate of glucose uptake [2] | also measured
CC(C)CC(=O)C(=O)O [KIC, α-ketoisocaproic acid] | increase | suppression | 5.2 ± 0.7 | 40±4 | not significantly affected | glucose utilization (GU) ([1]; IH 3 mM KIC, 0.33 μl/h bilaterally, pancreatic clamp): not altered
N[C@@H](CCC(=O)O)C(=O)O [L-glutamate] | significantly increased | marked suppression |  |  |  | circulating glucose after IH administration ([1]; IH 1 mM, 0.33 μl/h): 136 ± 2 mg/dL; circulating glucose before IH administration ([1]; basal value, before IH L-glutamate 1 mM, 0.33 μl/h): 159 ± 3 mg/dL
COc1ccc(Cl)cc1C(=O)NCCc1ccc(S(=O)(=O)NC(=O)NC2CCCCC2)cc1 [glibenclamide, reference compound] |  |  |  |  |  | effect per se on rate of glucose infusion and liver glucose fluxes ([2]; ICV infusion alone, pancreatic clamp): no effects; effect on the effects of ICV KIC on rate of glucose infusion and liver glucose fluxes ([2]; co-infused ICV with KIC, oxamate 50 mM, 3 μl bolus, 5 μl/h, glibenclamide 100 μM, pancreatic clamp): negated
O=C(O)[C@@H]1CCCN1 [proline] |  |  | 5.7 ± 0.9 | 36±2 | not significantly affected | 
CC(C)CC(Cl)C(=O)O (stereo not drawn) [α-CIC, α-chloroisocaproic acid] |  | decrease endogenous glucose production |  |  |  | blood glucose levels ([1]; intrahypothalamic infusion, conscious rats): lower blood glucose levels
